Test results: patent US20160158200A1, “Combinations of Hepatitis C Virus Inhibitors” (priority 2013, published 2016)

Test system: HCV genotype-1a variant with glutamine 30 changed to glutamate in the NS5A protein
Assay type: cell-based
Conditions: test compound titrated with BMS-790052 fixed at 200 nM; genotype 1a Q30E replicon
Procedure, shortened: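 Synergy was assessed by combining several fixed amounts of an NS5A-targeting compound with a titration of the second compound of interest.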

Row | SMILES | Fold-Synergistic 1a (Q30E)
1 | CO[C@H](C)[C@H](NC(=O)C1CCC(F)(F)CC1)c1nc(-c2ccc(-c3ccc(-c4c[nH]c([C@@H](NC(=O)C5CCC(F)(F)CC5)[C@@H](C)OC)n4)cc3)cc2)c[nH]1 [Compound L-98] | <10 fold
2 | COCC(NC(=O)C1CCC(F)(F)CC1)c1nc(-c2ccc(-c3ccc(-c4c[nH]c(C(COC)NC(=O)C5CCC(F)(F)CC5)n4)cc3)cc2)c[nH]1 [Compound L-102] | >100 fold
3 | COCC(NC(=O)C(=O)N1CCC(F)(F)CC1)c1nc(-c2ccc(-c3ccc(-c4c[nH]c(C(COC)NC(=O)C(=O)N5CCC(F)(F)CC5)n4)cc3)cc2)c[nH]1 [Compound L-103] | >10 fold
4 | COCC(NC(=O)C1(C(F)(F)F)CCC1)c1nc(-c2ccc(-c3ccc(-c4c[nH]c(C(COC)NC(=O)C5(C(F)(F)F)CCC5)n4)cc3)cc2)c[nH]1 [Compound L-104] | >100 fold
5 | COCC(NC(=O)C(C)(C)C)c1nc(-c2ccc(-c3ccc(-c4c[nH]c(C(COC)NC(=O)C(C)(C)C)n4)cc3)cc2)c[nH]1 [Compound L-105] | >100 fold
6 | O=C(N[C@H]1CCC[C@H]1c1nc(-c2ccc(-c3ccc(-c4c[nH]c([C@@H]5CCC[C@@H]5NC(=O)C5CCC(F)(F)CC5)n4)cc3)cc2)c[nH]1)C1CCC(F)(F)CC1 [Compound L-106] | >100 fold
7 | CC(C)(C)C(=O)N[C@H]1CCC[C@H]1c1nc(-c2ccc(-c3ccc(-c4c[nH]c([C@@H]5CCC[C@@H]5NC(=O)C(C)(C)C)n4)cc3)cc2)c[nH]1 [Compound L-107] | >100 fold
8 | CN(C)S(=O)(=O)N[C@H](c1nc(-c2ccc(-c3ccc(-c4c[nH]c([C@@H](NS(=O)(=O)N(C)C)C(C)(C)C)n4)cc3)cc2)c[nH]1)C(C)(C)C [Compound L-116] | >100 fold
9 | Cc1ccc(S(=O)(=O)NC(c2nc(-c3ccc(-c4ccc(-c5c[nH]c(C(NS(=O)(=O)c6ccc(C)cc6)C(C)(C)C)n5)cc4)cc3)c[nH]2)C(C)(C)C)cc1 [Compound L-117] | >100 fold
10 | CC(C)(C)[C@H](NS(=O)(=O)C1CCCCC1)c1nc(-c2ccc(-c3ccc(-c4c[nH]c([C@@H](NS(=O)(=O)C5CCCCC5)C(C)(C)C)n4)cc3)cc2)c[nH]1 [Compound L-118] | >100 fold
11 | CC(C)(C)[C@H](NS(=O)(=O)N1CCOCC1)c1nc(-c2ccc(-c3ccc(-c4c[nH]c([C@@H](NS(=O)(=O)N5CCOCC5)C(C)(C)C)n4)cc3)cc2)c[nH]1 [Compound L-119] | >100 fold
12 | CC(C)(C)[C@H](NS(=O)(=O)C1(C)CC1)c1nc(-c2ccc(-c3ccc(-c4c[nH]c([C@@H](NS(=O)(=O)C5(C)CC5)C(C)(C)C)n4)cc3)cc2)c[nH]1 [Compound L-120] | >100 fold
13 | CCN(CC)S(=O)(=O)NC(c1nc(-c2ccc(-c3ccc(-c4c[nH]c(C(NS(=O)(=O)N(CC)CC)C(C)(C)C)n4)cc3)cc2)c[nH]1)C(C)(C)C [Compound L-121] | >100 fold
14 | COCC(C)(COC)C(=O)NC(c1nc(-c2ccc(-c3ccc(-c4c[nH]c(C(NC(=O)C(C)(COC)COC)C(C)(C)C)n4)cc3)cc2)c[nH]1)C(C)(C)C [Compound L-123] | >100 fold
15 | CC(C)(C)[C@H](NC(=O)C1(COCc2ccccc2)COC1)c1nc(-c2ccc(-c3ccc(-c4c[nH]c([C@@H](NC(=O)C5(COCc6ccccc6)COC5)C(C)(C)C)n4)cc3)cc2)c[nH]1 [Compound L-124] | >100 fold
16 | CC(C)(C)[C@H](NC(=O)C1(CO)COC1)c1nc(-c2ccc(-c3ccc(-c4c[nH]c([C@@H](NC(=O)C5(CO)COC5)C(C)(C)C)n4)cc3)cc2)c[nH]1 [Compound L-125] | >100 fold
17 | CC(C)(C)[C@H](NC(=O)C1(C(F)(F)F)CCC1)c1nc(-c2ccc(-c3ccc(-c4c[nH]c([C@@H](NC(=O)C5(C(F)(F)F)CCC5)C(C)(C)C)n4)cc3)cc2)c[nH]1 [Compound L-129] | >100 fold
18 | O=C(C(=O)N1C[C@H](O)C[C@H]1c1nc(-c2ccc(-c3ccc(-c4c[nH]c([C@@H]5C[C@@H](O)CN5C(=O)C(=O)N5CCC(F)(F)CC5)n4)cc3)cc2)c[nH]1)N1CCC(F)(F)CC1 [Compound L-142] | >100 fold
19 | C[C@H]1C[C@@H](c2nc(-c3ccc(-c4ccc(-c5c[nH]c([C@@H]6C[C@H](C)CN6C(=O)C(=O)N6CCC(F)(F)CC6)n5)cc4)cc3)c[nH]2)N(C(=O)C(=O)N2CCC(F)(F)CC2)C1 [Compound L-143] | >100 fold
20 | CC(C)(NC(=O)CC(F)(F)F)C(=O)N[C@H](c1nc(-c2ccc(-c3ccc(-c4c[nH]c([C@@H](NC(=O)C(C)(C)NC(=O)CC(F)(F)F)C(C)(C)C)n4)cc3)cc2)c[nH]1)C(C)(C)C [Compound L-144] | >100 fold
21 | CC(C)[C@H](NC(=O)C(C)(C)C)c1ncc(-c2ccc(-c3ccc(-c4cnc([C@@H](NC(=O)C(C)(C)C)C(C)C)o4)cc3)cc2)o1 [Compound N-2] | >100 fold

Row | SMILES | Fold-Synergistic 1a (Q30E)
22 | CC(C)CC(=O)N[C@H](c1ncc(-c2ccc(C#Cc3ccc(-c4cnc([C@@H](NC(=O)CC(C)C)C(C)(C)C)[nH]4)cc3)cc2)[nH]1)C(C)(C)C [Compound N-3] | >10 fold
23 | COC(=O)N[C@H](C(=O)NC1(c2nc(-c3ccc(-c4ccc(-c5c[nH]c(C6(NC(=O)[C@@H](NC(=O)OC)C(C)C)CCC6)n5)cc4)cc3)c[nH]2)CCC1)C(C)C [Compound N-10] | <10 fold
24 | CC(C)CC(=O)NC1(c2ncc(-c3ccc(-c4ccc(-c5cnc(C6(NC(=O)CC(C)C)CCC6)[nH]5)cc4)cc3)[nH]2)CCC1.O=C(O)C(F)(F)F.O=C(O)C(F)(F)F [Compound N-11] | <10 fold
25 | CC(C)CC(=O)NC1(c2ncc(-c3ccc(-c4ccc(-c5cnc(C6(NC(=O)CC(C)C)CCCC6)[nH]5)cc4)cc3)[nH]2)CCCC1.O=C(O)C(F)(F)F.O=C(O)C(F)(F)F [Compound N-12] | <10 fold
26 | CC(C)CC(=O)NC1(c2ncc(-c3ccc(-c4ccc(-c5cnc(C6(NC(=O)CC(C)C)CC=CC6)[nH]5)cc4)cc3)[nH]2)CC=CC1.O=C(O)C(F)(F)F.O=C(O)C(F)(F)F [Compound N-16] | <10 fold
27 | CC(C)CC(=O)NC1(c2ncc(-c3ccc(-c4ccc(-c5cnc(C6(NC(=O)CC(C)C)Cc7ccccc7C6)[nH]5)cc4)cc3)[nH]2)Cc2ccccc2C1.O=C(O)C(F)(F)F.O=C(O)C(F)(F)F [Compound N-19] | <10 fold
28 | CC(C)CC(=O)NC1(c2ncc(-c3ccc(-c4ccc(-c5cnc(C6(NC(=O)CC(C)C)CC6)[nH]5)cc4)cc3)[nH]2)CC1.O=C(O)C(F)(F)F.O=C(O)C(F)(F)F [Compound N-21] | <10 fold
29 | CC(C)CC(=O)NC1(c2ncc(-c3ccc(-c4ccc(-c5cnc(C6(NC(=O)CC(C)C)CCCCC6)[nH]5)cc4)cc3)[nH]2)CCCCC1.O=C(O)C(F)(F)F.O=C(O)C(F)(F)F [Compound N-24] | <10 fold
30 | CC(C)CC(=O)NC(C)(C)c1ncc(-c2ccc(-c3ccc(-c4cnc(C(C)(C)NC(=O)CC(C)C)[nH]4)cc3)cc2)[nH]1.O=C(O)C(F)(F)F.O=C(O)C(F)(F)F [Compound N-26] | <10 fold
31 | COC(=O)N[C@@H](C(=O)N[C@H](c1nc(-c2ccc(-c3ccc(-c4c[nH]c([C@@H](NC(=O)[C@H](NC(=O)OC)C(C)C)C(C)(C)C)n4)cc3)cc2)c[nH]1)C(C)(C)C)C(C)C [Compound N-28] | >100 fold
32 | CC(C)(C)[C@H](NC(=O)C1CC1(F)F)c1nc(-c2ccc(-c3ccc(-c4c[nH]c([C@@H](NC(=O)C5CC5(F)F)C(C)(C)C)n4)cc3)cc2)c[nH]1 (stereo partly drawn) [Compound N-45a] | >100 fold
33 | CC(C)(C)C(=O)N[C@H](c1nc(-c2ccc(-c3ccc(-c4c[nH]c([C@@H](NC(=O)C(C)(C)C)C(C)(C)C)n4)cc3)cc2)c[nH]1)C(C)(C)C [Compound N-46] | >100 fold
34 | CC(C)(C)[C@H](NC(=O)C1CCC(F)(F)CC1)c1nc(-c2ccc(-c3ccc(-c4c[nH]c([C@@H](NC(=O)C5CCC(F)(F)CC5)C(C)(C)C)n4)cc3)cc2)c[nH]1 [Compound N-47] | >100 fold
35 | CC(C)(C)[C@H](NC(=O)Cc1ccccc1F)c1nc(-c2ccc(-c3ccc(-c4c[nH]c([C@@H](NC(=O)Cc5ccccc5F)C(C)(C)C)n4)cc3)cc2)c[nH]1 [Compound N-48] | >100 fold
36 | CC(C)(C)[C@H](NC(=O)Cc1ccc(F)cc1)c1nc(-c2ccc(-c3ccc(-c4c[nH]c([C@@H](NC(=O)Cc5ccc(F)cc5)C(C)(C)C)n4)cc3)cc2)c[nH]1 [Compound N-49] | >100 fold
37 | CC(C)(C)[C@H](NC(=O)CC1CCCCC1)c1nc(-c2ccc(-c3ccc(-c4c[nH]c([C@@H](NC(=O)CC5CCCCC5)C(C)(C)C)n4)cc3)cc2)c[nH]1 [Compound N-50] | >100 fold
38 | CC(C)(C)[C@H](NC(=O)c1ccc(F)c(F)c1)c1nc(-c2ccc(-c3ccc(-c4c[nH]c([C@@H](NC(=O)c5ccc(F)c(F)c5)C(C)(C)C)n4)cc3)cc2)c[nH]1 [Compound N-51] | >100 fold
39 | CC(C)(C)[C@H](NC(=O)C1(C(F)(F)F)CCCC1)c1nc(-c2ccc(-c3ccc(-c4c[nH]c([C@@H](NC(=O)C5(C(F)(F)F)CCCC5)C(C)(C)C)n4)cc3)cc2)c[nH]1 [Compound N-52] | >100 fold
40 | CC(C)(C)[C@H](NC(=O)c1ccc(Cl)cn1)c1nc(-c2ccc(-c3ccc(-c4c[nH]c([C@@H](NC(=O)c5ccc(Cl)cn5)C(C)(C)C)n4)cc3)cc2)c[nH]1 [Compound N-53] | >100 fold
41 | COc1ccc(C(=O)N[C@H](c2nc(-c3ccc(-c4ccc(-c5c[nH]c([C@@H](NC(=O)c6ccc(OC)cc6)C(C)(C)C)n5)cc4)cc3)c[nH]2)C(C)(C)C)cc1 [Compound N-54] | >100 fold
42 | CC(C)(C)[C@H](NC(=O)C1C(C)(C)C1(C)C)c1nc(-c2ccc(-c3ccc(-c4c[nH]c([C@@H](NC(=O)C5C(C)(C)C5(C)C)C(C)(C)C)n4)cc3)cc2)c[nH]1 [Compound N-55] | >100 fold
